Measurements taken from publication PMC9395488, “First-in-human study of IM156, a novel potent biguanide oxidative phosphorylation (OXPHOS) inhibitor, in patients with advanced solid tumors” (Investigational New Drugs, 2022).
“Also recorded” adds a separate entry of the source.

Key:
SD rats = conditions: 2018, cited from earlier work
[1] = major metabolic organs such as lung, liver, kidney; cited from earlier work
[2] = SD rats, 50, 100/75, or 150/100 mg/kg QOD oral gavage; ref ImmunoMet, 2018; cited from earlier work
[3] = test system: purified complex I membrane from bovine heart; design: method as in ImmunoMet, 2018; conditions: ref ImmunoMet, 2018, read-out: mitochondrial OXPHOS inhibition IC50; cited from earlier work
Hs746T GC xenograft = test system: Hs746T GC xenograft; design: method as in ImmunoMet, 2018; conditions: Hs746T GC xenograft in mice, each compound alone; IM156 10 or 30 mg/kg, Irinotecan 50 or 75 mg/kg; ref ImmunoMet, 2018; cited from earlier work
advanced solid tumors = experiment: Preliminary efficacy (RECIST 1.1 / RANO response, PFS); assay type: in vivo, human
Source text: A preliminary evaluation of efficacy was based on serial CT or magnetic resonance imaging (MRI). Response criteria were as defined by RECIST 1.1 or RANO. The following endpoints were to be assessed: overall response rate (ORR: complete response [CR] plus partial response [PR]), disease control rate (DCR: CR + PR + stable disease [SD]), DoR, and PFS.
The safety population was defined as all patients who received at least one dose of IM156. The PK population was not defined in the protocol but included all patients with sufficient PK data to perform adequate PK modeling. The efficacy population included all patients who underwent at least one tumor imaging assessment while receiving IM156. Safety was assessed using descriptive statistics (e.g., DLTs, AEs, laboratory tests, physical examination, 12-lead ECG). The incidence and number of events were reported for the DLTs observed in Cycle 1 per dose group. […] Two-sided 95% Confidence Intervals (CIs) were also provided. Adverse events and TRAEs were standardized with the System Organ Class and the Preferred Term using the Medical Dictionary for Regulatory Activities v23.0. In addition, TEAEs, serious adverse events (SAEs), TEAE severity, and TEAEs leading to withdrawal were presented by dose group. Efficacy data were to be presented by Waterfall and Swim Lane plots. Time to event endpoints (e.g., DoR, PFS) were determined using Kaplan–Meier estimations with the median value for each endpoint summarized.

[4] = test system: miR-17~92 overexpression Eµ-MYC lymphoma; design: method as in ImmunoMet, 2018; conditions: nude mice, IM156 in drinking water 0.8 mg/mL, vs control line or regular drinking water; ref ImmunoMet, 2018; cited from earlier work
protein complex 1 = test system: protein complex 1; design: method as in ImmunoMet, 2018; conditions: study protocol background; ref ImmunoMet, 2018; cited from earlier work
[5] = Plasma pharmacokinetics of IM156 in patients
Procedure: PK samples were also obtained on Cycle 1 Day 15 immediately prior to dosing and 2 h after dosing.
③ Method and schedule for administration:
IM156 will be administered in a fasted state (at least 2 hours after
and 1 hour before eating and drinking except water) except at
the single dose stage (described below).
In the single dose stage, IM156 will be administered with a high-
fast of at least 10 hours, subjects should eat a high-fat meal in
20 minutes starting 30 minutes prior to administration of IM156
with 240 mL of water. No food will be eaten for at least 4 hours
after the administration of IM156. Water is allowed as desired
except for one hour before and after the administration of IM156.
Phase 1b: advanced solid tumor or lymphoma
IM156 will be administered at the RP2D and schedule determined during
Phase 1a. The population(s) and dose and schedule of IM156 will be
defined in a protocol amendment.
Methodology This study is a Phase 1 clinical study to determine the MTD and RP2D of
IM156 as a single agent and to explore its safety, tolerability, PK
characteristics, exploratory markers, and preliminary efficacy.
The Phase 1 clinical study consists of two parts, Phase 1a and Phase 1b.
The Phase 1a is conducted to determine the MTD of IM156 as a single
agent. In addition, the safety, tolerability, preliminary efficacy, PK
characteristics, and exploratory markers of IM156 are evaluated in
patients with advanced solid tumors or lymphoma who have failed in the
standard therapies. Approximately 8 cohorts are planned in Phase 1a; the
number of cohorts and the dose and schedule of IM156 to be
administered at each dose levels will be determined by Safety Committee.
The Phase 1b is conducted to confirm the safety and tolerability, to
explore the preliminary efficacy, and to evaluate the exploratory markers
at the RP2D of IM156 in patients with advanced solid tumor or lymphoma.
Pharmacokinetic Evaluation
Pharmacokinetic evaluation on IM156 will be carried out at each dose level in all the patients
enrolled in the Phase 1a and Phase 1b study. Pharmacokinetic evaluation will be performed on
Day 1 and 15 (Day 15 is only for the Phase 1a study) of the first cycle (Cycle 1), and Day 1 of the
second cycle (Cycle 2). Day 1 Cycle 2 will be Day 29. On Day 1 of Cycles 1 and 2, patients may
be hospitalized in the ward where 24-hour monitoring is possible, and blood and urine will be
collected before and after IM156 adminstration for PK evaluation. The drug concentration will be
evaluated whenever analyses of patient samples are feasible during the clinical study. In PK
evaluation, area under the concentration-time curve (AUC) over the time interval from 0
extrapolated to infinity (AUCinf), AUC up to the last measurable concentration (AUC0–last),
maximum plasma drug concentration (Cmax), minimum plasma drug concentration (Cmin), time
taken to reach the maximum concentration (Tmax), terminal phase half life (T1/2), apparent total
clearance of the drug from plasma after oral administration (CL/F), accumulation ratio at steady
state, cumurative amount of unchanged drug excreted into the urine (Ae), renal clearance (CLr),
and so on will be determined and other PK parameters can be added, if necessary.

A549 = test system: A549; design: method as in ImmunoMet, 2018; conditions: in A549; ref ImmunoMet, 2018; read-out: OXPHOS inhibition IC50; cited from earlier work
beagle dogs = conditions: ref ImmunoMet, 2018, cited from earlier work
[6] = 150 mg/kg/dose QOD oral, between Days 8 and 10, ref ImmunoMet
[7] = oral QOD over 27 days (14 doses), ref ImmunoMet
[8] = plasma, Cycle 1 Day 1, 100 mg oral, N = 3
[9] = plasma, Cycle 1 Day 1, 200 mg oral, N = 3
[10] = plasma, Cycle 1 Day 1, 400 mg oral, N = 3
[11] = plasma, Cycle 1 Day 1, 800 mg oral (both regimens combined), N = 6
[12] = plasma, Cycle 1 Day 1, 1200 mg oral (both regimens combined), N = 7
[13] = plasma, Day 27, cohort 1, 100 mg QOD, N = 2
[14] = plasma, Day 27, cohort 2, 200 mg QOD, N = 3
[15] = plasma, Day 27, cohort 3, 400 mg QOD, N = 3
[16] = plasma, Day 27, cohort 4, 800 mg QOD, N = 3
[17] = plasma, Day 27, cohort 5, 1200 mg QOD, N = 3
[18] = plasma, Day 27, cohort 6, 800 mg QD, N = 3
[19] = plasma, Day 27, cohort 7, 1200 mg QD, N = 2
[20] = plasma, Fed 1 (single dose with high-fat meal), 1200 mg oral, N = 3

Q: Which tolerability (SD rats; 50 mg/kg/dose QOD oral gavage, 27 days, ref ImmunoMet) does the source give for NC(=Nc1ccc(OC(F)(F)F)cc1)N=C(N)N1CCCC1 [IM156] here?
A: well tolerated

Q: What about the “preterminal euthanasia, females” value (SD rats; [6]) of the same molecule?
A: 3/15

Q: And the “preterminal euthanasia, males” value (SD rats; [6])?
A: 2/15

Q: What about the “no-observed-adverse-effect level (NOAEL)” value (SD rats; [7]) of the same molecule?
A: 50 mg/kg/dose

Q: And the “severely toxic dose in 10% of the rats (STD10)” value (SD rats; [7])?
A: 100 mg/kg/dose

Q: What about the “tissue concentrations compared to plasma” value [1] of the same molecule?
A: 30–80 fold

Q: And the “dose proportionality of exposure based on AUClast” value [2]?
A: more than dose-proportional

Q: And the “dose proportionality of exposure based on Cmax” value [2]?
A: less than dose-proportional

Q: And the IC50 [3]?
A: 2 µM

Q: And the “reduction of tumor volume” value (Hs746T GC xenograft)?
A: ~ 70%

Q: And the “duration of prolonged SD / time on IM156” value (advanced solid tumors; 1 patient with gastric adenocarcinoma)?
A: 169 days

Q: What about the “duration of prolonged SD / time on IM156” value (advanced solid tumors; 1 patient with gastric neuroendocrine carcinoma) of the same molecule?
A: 444 days

Q: And the “objective responses (CRs or PRs)” value (advanced solid tumors; 16 of 22 patients with response data)?
A: No objective responses; also recorded: No clinical responses

Q: What about the “median PFS” value (advanced solid tumors; Kaplan–Meier) of the same molecule?
A: 54 days

Q: What about the “median PFS, 95% CI” value (advanced solid tumors; Kaplan–Meier) of the same molecule?
A: 47 to 71 days

Q: What about the “disease control rate (DCR)” value (advanced solid tumors; N = 22) of the same molecule?
A: 32%

Q: And the “patients with confirmed SD” value (advanced solid tumors; N = 22)?
A: 2 patients

Q: What about the “patients with confirmed SD, percent” value (advanced solid tumors; N = 22) of the same molecule?
A: 9%

Q: What about the “patients with stable disease (SD) as best response” value (advanced solid tumors; N = 22) of the same molecule?
A: 7 patients

Q: What about the “patients with stable disease (SD) as best response, percent” value (advanced solid tumors; N = 22) of the same molecule?
A: 32%

Q: What about the “extension of overall animal survival” value [4] of the same molecule?
A: approximately 50%

Q: What about the “potency as protein complex 1 inhibitor relative to metformin” value (protein complex 1) of the same molecule?
A: ~ 100 times

Q: And the “accumulation of plasma exposure at steady-state” value ([5]; 800 mg QD, Day 27 vs Day 1)?
A: modest accumulation

Q: What about the “maximum plasma exposure achieved” value ([5]; daily doses of 800 mg) of the same molecule?
A: ~ 6 μM

Q: And the “dose proportionality of plasma exposure (AUC0-24, Cmax)” value ([5]; doses ≥ 200 mg)?
A: increased dose proportionally; also recorded: increased in a dose proportional manner; also recorded: dose proportionality

Q: And the AUC0-24 [5, 8]?
A: 482 ± 342 ng·h/mL

Q: And the Cmax [5, 8]?
A: 38.7 ± 31.1 ng/mL

Q: And the Tmax [5, 8]?
A: 6.67 ± 2.31 h

Q: And the AUC0-24 [5, 9]?
A: 2980 ± 251 ng·h/mL

Q: And the Cmax [5, 9]?
A: 189 ± 41.0 ng/mL

Q: What about the Tmax [5, 9] of the same molecule?
A: 4.67 ± 3.06 h

Q: What about the AUC0-24 [5, 10] of the same molecule?
A: 4380 ± 3010 ng·h/mL

Q: What about the Cmax [5, 10] of the same molecule?
A: 362 ± 131 ng/mL

Q: And the Tmax [5, 10]?
A: 3.33 ± 1.15 h

Q: What about the AUC0-24 [5, 11] of the same molecule?
A: 7520 ± 3820 ng·h/mL

Q: What about the Cmax [5, 11] of the same molecule?
A: 829 ± 260 ng/mL

Q: And the Tmax [5, 11]?
A: 2.25 ± 1.47 h

Q: What about the AUC0-24 [5, 12] of the same molecule?
A: 14,100 ± 6970 h*ng/mL

Q: And the Cmax [5, 12]?
A: 1100 ± 616 ng/mL

Q: And the Tmax [5, 12]?
A: 5.00 ± 3.00 h

Q: And the “Plasma AUC0-24” value ([5]; plasma, Day 1, cohort 4 only, 800 mg QOD)?
A: 7250 ± 3960 ng·h/mL

Q: What about the “Plasma AUC0-24” value ([5]; plasma, Day 1, cohort 5 only, 1200 mg QOD) of the same molecule?
A: 10600 ± 4820 ng·h/mL

Q: And the “Plasma AUC0-24” value ([5]; plasma, Day 1, cohort 6 only, 800 mg QD)?
A: 7790 ± 4530 ng·h/mL

Q: And the “Plasma AUC0-24” value ([5]; plasma, Day 1, cohort 7 only, 1200 mg QD)?
A: 16800 ± 7720 ng·h/mL

Q: And the “mean Tmax values, range over doses” value ([5]; plasma, Day 27)?
A: 1.2 to 4.0 h

Q: What about the AUC0-24 [5, 13] of the same molecule?
A: 1070 ± 330 ng·h/mL

Q: And the AUC0-48 [5, 13]?
A: 1400 ± 383 ng·h/mL

Q: What about the AUCINF [5, 13] of the same molecule?
A: 1620 ± 473 ng·h/mL

Q: And the CL/F [5, 13]?
A: 64.5 ± 18.8 L/h

Q: And the Cmax [5, 13]?
A: 109 ± 54.8 ng/mL

Q: What about the Tmax [5, 13] of the same molecule?
A: 2.50 ± 2.12 h

Q: And the Vz/F [5, 13]?
A: 1580 ± 291 L

Q: What about the t1/2 [5, 13] of the same molecule?
A: 17.3 ± 1.91 h

Q: And the AUC0-24 [5, 14]?
A: 4200 ± 1140 ng·h/mL

Q: What about the AUC0-48 [5, 14] of the same molecule?
A: 6010 ± 1810 ng·h/mL

Q: And the AUCINF [5, 14]?
A: 6180 ± 2220 ng·h/mL

Q: And the CL/F [5, 14]?
A: 34.6 ± 12.4 L/h

Q: What about the Cmax [5, 14] of the same molecule?
A: 272 ± 43.8 ng/mL

Q: And the Tmax [5, 14]?
A: 4.00 ± 0.00 h

Q: What about the Vz/F [5, 14] of the same molecule?
A: 837 ± 266 L

Q: What about the t1/2 [5, 14] of the same molecule?
A: 16.9 ± 0.752 h

Q: And the AUC0-24 [5, 15]?
A: 7630 ± 5410 ng·h/mL

Q: And the AUC0-48 [5, 15]?
A: 10,900 ± 8770 h*ng/mL

Q: And the CL/F [5, 15]?
A: 67.8 ± 28.3 L/h

Q: And the Cmax [5, 15]?
A: 530 ± 324 ng/mL

Q: And the Tmax [5, 15]?
A: 4.00 ± 0.00 h

Q: What about the Vz/F [5, 15] of the same molecule?
A: 1160 ± 256 L

Q: What about the t1/2 [5, 15] of the same molecule?
A: 12.4 ± 2.56 h

Q: What about the AUC0-24 [5, 16] of the same molecule?
A: 12,900 ± 9470 h*ng/mL

Q: What about the AUC0-48 [5, 16] of the same molecule?
A: 18,200 ± 14,700 h*ng/mL

Q: What about the AUCINF [5, 16] of the same molecule?
A: 11,200 ± 5740 h*ng/mL

Q: And the CL/F [5, 16]?
A: 82.4 ± 42.3 L/h

Q: What about the Cmax [5, 16] of the same molecule?
A: 949 ± 408 ng/mL

Q: What about the Tmax [5, 16] of the same molecule?
A: 1.17 ± 0.764 h

Q: And the Vz/F [5, 16]?
A: 1650 ± 413 L

Q: And the t1/2 [5, 16]?
A: 14.9 ± 4.20 h

Q: What about the AUC0-24 [5, 17] of the same molecule?
A: 21,800 ± 3680 h*ng/mL

Q: What about the AUC0-48 [5, 17] of the same molecule?
A: 29,800 ± 4700 h*ng/mL

Q: And the AUCINF [5, 17]?
A: 33,100 ± 6120 h*ng/mL

Q: What about the CL/F [5, 17] of the same molecule?
A: 36.9 ± 6.83 L/h

Q: What about the Cmax [5, 17] of the same molecule?
A: 1580 ± 75.3 ng/mL

Q: And the Tmax [5, 17]?
A: 3.33 ± 1.15 h

Q: What about the Vz/F [5, 17] of the same molecule?
A: 863 ± 312 L

Q: What about the t1/2 [5, 17] of the same molecule?
A: 15.9 ± 2.90 h

Q: And the AUC0-24 [5, 18]?
A: 33,600 ± 9780 h*ng/mL

Q: And the Cmax [5, 18]?
A: 1870 ± 485 ng/mL

Q: And the Tmax [5, 18]?
A: 4.00 ± 0.00 h

Q: And the AUC0-24 [5, 19]?
A: 36,300 ± 7550 h*ng/mL

Q: What about the Cmax [5, 19] of the same molecule?
A: 1980 ± 94.8 ng/mL

Q: What about the Tmax [5, 19] of the same molecule?
A: 4.00 ± 0.00 h

Q: And the AUC0-24 [5, 20]?
A: 17,600 ± 12,800 h*ng/mL

Q: And the Cmax [5, 20]?
A: 1220 ± 910 ng/mL

Q: And the Tmax [5, 20]?
A: 6.83 ± 5.84 h

Q: And the “mean plasma half-life (t1/2) values, range” value ([5]; plasma, post dose administration)?
A: 12—17 h

Q: And the IC50 (A549)?
A: 9 µM

Q: What about the tolerability (beagle dogs; beagle dogs, 20, 40, or 80 mg/kg/dose QOD oral gavage, 27 days) of the same molecule?
A: tolerated and did not result in morbidity/mortality

Q: What about the “highest non-severely toxic dose (HNSTD)” value (beagle dogs; beagle dogs, oral QOD over 27 days (14 doses), highest dose tested) of the same molecule?
A: ≥ 80 mg/kg
